Here are results for 21 compounds from PubChem BioAssay (NCI).

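Results reflect a 48-hour exposure of cells in 96-well plates to compound at five concentrations. The concentration for 50% growth inhibition is given as GI50. TGI: concentration producing complete growth inhibition.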

Holding throughout (assay): inhibition of tumour cell growth, NCI panel, 48 h
The subject of test [1] is MDA-MB-435.
The test system of test [2] is NCI/ADR-RES ovarian.
Test [3] deals with T-47D breast.
In test [4] the test system is KM20L2 colon.
Test [5] relates to DMS 114 small cell lung.
For test [6], the system named is MDA-N.
Test [7] deals with M19-MEL melanoma.

With `O=C1COCCN1c1ccc(NCc2cn(Cc3ccc(F)cc3)c3ccccc23)cc1`, the GI50 in test [1] is 14.5 µM; in test [2] it was 5.44 µM; in test [3], 0.0522 µM. Further, the TGI in test [1] worked out at 32.1 µM; in test [2] it was 45.3 µM.

Consider `NC(CSC(c1ccccc1)(c1ccccc1)c1ccc(Br)cc1)C(=O)O` (stereo unspecified), for which the GI50 in test [1] was 0.0402 µM; in test [2] it was 0.976 µM; in test [3], 0.345 µM. Further, the values for the TGI in test [1], in test [2] and in test [3] were 0.199 µM, 4.54 µM and > 100 µM, respectively.

Turning to `O=P1(NCCCl)OCCC(OO)N1CCCl` (stereo unspecified), the TGI is > 100 µM in test [1]; > 100 µM in test [2]; > 100 µM in test [4]; > 100 µM in test [5]; > 100 µM in test [6]; 17.7 µM in test [3]. The TGI in test [7] is > 100 µM.

Turning to `Clc1ccc2c(NCCCNCc3ccc4c(c3)OCO4)ccnc2c1`, the results for the GI50 in test [1], in test [2] and in test [3] were 1.68 µM, 4 µM and 2.11 µM, respectively. Moreover, the TGI in test [1] stood at 3.29 µM; in test [2] it was 18.4 µM; in test [3] it was 5.26 µM.

Consider `COc1cccc(/C=N/[N-]C(N)=O)c1[O-].[Cu+2].c1ccncc1`, for which the TGI in test [4] was > 100 µM.

Regarding `C=C(C=O)[C@@H]1CC=C(C=O)CC1`, the GI50 in test [1] was 4.21 µM; in test [2], 3.89 µM; in test [3] it was 3.06 µM. Also, the TGI was 74.3 µM in test [1], > 100 µM in test [2] and 26.4 µM in test [3].

With `O=c1c(Br)ccc(Br)cc1Br`, the figures for the GI50 in test [1], in test [2] and in test [3] were 1.85 µM, 2.56 µM and 0.744 µM, respectively. The TGI in test [1] was found to be 4.38 µM; in test [2], 7.16 µM; in test [3] it was 3.71 µM.

Turning to `C/C(=N\O)c1ccc(Nc2cc(-c3ccccc3)nc3c(O)cccc23)cc1`, the GI50 was 6.72 µM in test [1], 8.54 µM in test [2] and 5.44 µM in test [3]. For the same compound, the results for the TGI in test [1], in test [2] and in test [3] were 26.6 µM, 35.5 µM and 32.9 µM, respectively.

In the case of `CC(NC(=O)C1(N)CCCC1)C(=O)O` (stereo unspecified), the TGI in test [1], in test [2], in test [6] and in test [3] was > 100 µM in each case.

For the compound `COc1cc(Nc2nccc(-c3cnn4ncccc34)n2)cc(OC)c1`, the results for the GI50 in test [1], in test [2] and in test [3] were 0.07 µM, 0.0937 µM and 0.122 µM, respectively. For the same compound, the TGI in test [1] was 0.859 µM; in test [2] it was 2.26 µM; in test [3], 1.55 µM.

For `COc1cc(Cl)c(C)cc1NC(=O)c1cc2ccccc2cc1O`, the values for the GI50 in test [1], in test [2] and in test [3] were 2.6 µM, 2.55 µM and 2.07 µM, respectively. Also, the TGI is 8.92 µM in test [1], 9.04 µM in test [2] and 11.7 µM in test [3].

In the case of `COc1ccc2c(C(=O)NCCCCCC(=O)O)cc3cc4c(cc3c2c1)OCO4`, the GI50 in test [1] was > 100 µM; in test [2], > 100 µM; in test [3], 80 µM. The TGI in test [1], in test [2] and in test [3] was > 100 µM in each case.

As for `Cc1cnc2n(c1=O)Cc1ccccc1CO2`, the figures for the GI50 in test [1], in test [2] and in test [3] were 25.9 µM, 22.7 µM and 6.79 µM, respectively. Moreover, the TGI in test [1] is > 72.1 µM; in test [2] it was 71.4 µM; in test [3], 29.3 µM.

`COc1cc(-c2cc(C(=O)N3CCN(C(=O)c4ccccc4NCc4cccs4)CC3)nc3cc(-c4ccccc4)nn23)cc(OC)c1OC`: the GI50 is 1.16 µM in test [1], 2.6 µM in test [2] and 8.38 µM in test [3]. Moreover, the values for the TGI in test [1], in test [2] and in test [3] were 4.34 µM, 9.29 µM and > 100 µM, respectively.

Regarding `O=C(/C=C/c1ccco1)c1cccc(Nc2nc(Nc3ccccc3)nc(Nc3ccccc3)n2)c1`, the GI50 in test [1] is 37.7 µM; in test [2], 36.3 µM; in test [3] it was 3.61 µM. In addition, the TGI in test [1], in test [2] and in test [3] was > 100 µM each time.

Consider `O=c1c(-c2nc3ccccc3[nH]2)cc2ccccc2n1Cc1cn(Cc2ccc(F)cc2)nn1`, for which, in test [2], the GI50 is 1.28 µM and the TGI amounted to 19.2 µM. Moreover, in test [3], the GI50 is 0.206 µM and the TGI is > 100 µM.

Take `Nc1nc(N)c(N=Nc2ccc([As](=O)(O)O)c(O)c2)c(N)n1`: the TGI was 6.37 µM in test [1], > 100 µM in test [2], 5.29 µM in test [6] and > 100 µM in test [3].

On to `CN(CC(=O)O)Cc1c[nH]c2ccccc12`, for which the TGI in test [1], in test [2] and in test [6] was > 100 µM in each case.

On to `COc1cc(/C=C/C(=O)c2ccc(SC)cc2)cc(OC)c1OC`, for which the GI50 was 12.4 µM in test [1], 4.68 µM in test [2] and 9.68 µM in test [3]. Further, the results for the TGI in test [1], in test [2] and in test [3] were 25.8 µM, 26.4 µM and 62.9 µM, respectively.

Regarding `COc1ccc(S(=O)(=O)Nc2c(/C=C\c3cc(OC)c(OC)c(OC)c3)ccc(OC)c2O)cc1OC`, the GI50 in test [1] was 0.03 µM; in test [2] it was 1.58 µM; in test [3], > 86.9 µM. Also, the TGI in test [1] is 0.302 µM; in test [2], > 100 µM; in test [3], > 100 µM.

On to `COc1ccc(/C=N/C2=C(C#N)C(c3ccccc3)c3ccc4ccccc4c3O2)cc1` (stereo unspecified), for which the GI50 in test [1] is 0.0962 µM; in test [2] it was 0.262 µM; in test [3], 0.493 µM. Further, the TGI in test [1] is 0.353 µM; in test [3], > 100 µM.
